Data taken from publication PMC9738107, “Targeting of the ELR+CXCL/CXCR1/2 Pathway Is a Relevant Strategy for the Treatment of Paediatric Medulloblastomas” (Cells, 2022).
Values joined by “and” are separate entries in the source; they are usually repeats but may differ in a detail not shown here. Identical values can stand only once.

Tests used:
[1] = Quantification of C29 in mouse cerebellum postmortem (LC/MS); type: in vivo; details: for Amount of C29 in cerebellum: individual animals
Procedure: A 5 mM stock solution of C29 (1.743 mg/mL) in DMSO was prepared. This solution was diluted with a mixture of acetonitrile/water, 8/4, v/v to produce the solution with the highest concentration: 1250 ng/1.2 mL. Successive dilutions with acetonitrile/water, 8/4, v/v provided 5 more standards with concentrations between 50 ng/mL and 1250 ng/mL.
Samples of cerebellum were prepared by dissolving minced biological material in 1.2 mL acetonitrile/water, 8/4, v/v. After sonication for 5 min, the vials were centrifuged (15,000 rpm) and the supernatant was filtered through a […] PTFE microfilter.
All standards and samples were analysed using a LC/MS system consisting of an Agilent 1100 HPLC chain with a degasser, a binary pump, a column oven, an automatic injector, and a UV detector. The column is a Phenomenex Gemini analytical column 3 µm C18 110 A 150 mm × 3 mm × 3 µm, at 25 °C. The solvents are water with 0.1% formic acid (solvent A) and acetonitrile with 0.1% formic acid (solvent B). The gradient is as follows: 10% B to 100% B over 8 min, 100% B over 6 min, 100% B to 10% B over 1 min, and 10% B over 3 min (total time: 18 min). The UV detection is carried out over the range of 190–400 nm (in 2 nm steps). The mass spectrometer is an LCQ Advantage (ThermoScientific, Waltham, MA, USA) of the “ion trap 3D” type, equipped with an electrospray source.
Mass spectrometric detection was carried out in negative mode and in SRM (single reaction monitoring) mode according to the monitoring of the 380.9–194.2 transition. The isolation span of the ion was 2 mass units (193.2–195.2). The applied normalized collision energy was 30%. Each standard and sample were injected in duplicate. Each duplicate was separated by a blank and the concentration of the standards ranged from […]. […] Signals were acquired based on their area and integrated using the ICIS algorithm according to the following parameters: smoothing points: 15; baseline window: 75 scans; area noise factor: 5; peak noise factor: 10. Calibration is external, and the regression was linear. The origin was included in the calibration.
A critical and limiting feature of a drug targeting MB is its ability to cross the blood–brain barrier (BBB) and reach the tumour in the brain. […] However, after 5 days of treatment, 24 h after the last administration, no more C29 was found in the cerebellum of the mice.

[2] = test system: radiation resistant Daoy cells (DR1, DR2); test: Clonogenic assay; type: cell-based, human
Procedure: (§1) Figure 8 C29 is efficient on radioresistant MB cell lines. (A) Cell death after 48 h of treatment with control (DMSO, CT) or C29 1, 2.5, or 5 µM on radiation-resistant cells (RR) and normal cells (N), n = 3. Statistics were performed using the one-way method ANOVA. * p < 0.05, ** p < 0.01, *** p < 0.001. For this figure, DR1 = D1, DR2 = D2, HR1 = H1, HR2 = H2, and C8D1A = C8. (B) Proliferation of DR1/DR2 (A) and HR1/HR2 (B) radio-resistant cells after 1 µM C29 treatment or control (DMSO), n = 3. (C) Clonogenic assay on DR1, DR2 (n = 3) and HR1, HR2 (n = 3) cells after treatment with control (DMSO) or C29 (1 µM or 2.5 µM). (D) Cell migration through the Boyden chamber of DR1 and DR2 cells specifically attracted by 200 ng/mL CXCL8. Cells were treated with control (DMSO) or C29 (1 and 2.5 µM). Results are expressed as percentage of control (n = 3). Scale = 1000 μm. Statistics were performed using Student t-test for 2 comparisons only or ANOVA test for multiple comparisons. * p < 0.05, ** p < 0.01, *** p < 0.001. […]
(§2) each month by using PlasmoTest Kit (#10L07‐MM, InvivoGen, Toulouse, France). Daoy and ONS‐76 belong to the Shh genetic subgroup, D341‐Med and HD‐MB03 to group 3. […]
(§3) 150 Daoy/DR1/DR2/ ONS ‐ 76 and 300 HD ‐ MB03/HR1/HR2 cells were seeded in trip‐ licate in 6‐well plates in the presence or absence of treatment (1 or 2∙5μM […] or DMSO as control). On day 9 (Daoy/ONS‐76) and day 11 (HD ‐MB03), cells were fixed in ice‐cold absolute ethanol (Sigma) for 20 min, washed with PBS and then stained with Giemsa 50% for 30 min. The number of clones was quantified using ImageJ software. We only considered clones containing more than 50 cells. […]
Violet. […]
(§4) 5000 cells were plated in 48 multi‐well plates coated with agarose 0∙8%. After two days, spheroids were mixed with 100μl of matrigel mix (200μl of matrigel (Corning Mat‐ rigel Matrix, Fontenay‐sous‐Bois, France), 100 μl collagen I (8 mg/ml, Corning), 80 μl HEPES 1M and 320μl respective medium) in 12 multi‐well plates. […]

HR2 cells = test: Clonogenic assay; type: cell-based, human; details: HR2, 2.5 µM
Procedure: as §1, §2, §3
Violet. […]
as §4

Accumulation in cerebellum upon repeated administration ([1]; 5 days of treatment, 24 h after the last administration): does not accumulate | Amount of C29 in cerebellum ([1]; gavage 100 mg/kg daily, chronic (5 days), 24 h after last treatment): 0 ng C29/mg cerebellum | Amount of C29 in cerebellum ([1]; gavage 200 mg/kg daily, chronic (5 days), 24 h after last treatment): 0 ng C29/mg cerebellum | Blood–brain barrier crossing ([1]; oral administration): can cross the blood–brain barrier
SMILES: O=C(Nc1cccc(Cl)c1)Nc1nc2ccc([N+](=O)[O-])cc2s1 [C29, 1-(3-chlorophenyl)-3-(6-nitrobenzo[d]thiazol-2-yl) urea]
Amount of C29 in cerebellum ([1]; gavage 100 mg/kg, acute (3 h), 100 mg/kg): 0 ng C29/mg cerebellum and 5.394 ng C29/mg cerebellum | Amount of C29 in cerebellum ([1]; gavage 200 mg/kg, acute (3 h), 200 mg/kg): 13.1 ng C29/mg cerebellum and 9.3 ng C29/mg cerebellum and 7.4 ng C29/mg cerebellum and 4.7 ng C29/mg cerebellum and 6.4 ng C29/mg cerebellum | Clone formation ([2]; DR1, DR2, 1 µM): effective | Clone formation ([2]; DR1, DR2, 2.5 µM): completely prevented clone formation | Clone formation (HR2 cells): significantly reduced clone formation
